From PubChem BioAssay (NCI)
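The concentration for 50% growth inhibition is given as GI50. TGI: total growth inhibition.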

Tests used:
Assay in all cases: NCI tumour cell line growth inhibition, 384-well format
[1] = system: CCRF-CEM leukemia
[2] = system: IGROV1 ovarian
[3] = system: SK-MEL-28 melanoma
[4] = system: MOLT-4 leukemia
[5] = system: SNB-19 CNS
[6] = system: MDA-MB-231 breast
[7] = system: ACHN renal
[8] = system: HOP-92 NSCLC
[9] = system: DU-145 prostate
[10] = system: MDA-MB-468 breast
[11] = system: NCI-H23 lung
[12] = system: NCI/ADR-RES ovarian
[13] = system: HCC-2998 colon
[14] = system: NCI-H322M lung
[15] = system: RPMI-8226 leukemia
[16] = system: SK-MEL-2 melanoma
[17] = system: BT-549 breast
[18] = system: NCI-H226 lung
[19] = system: SF-268 CNS
[20] = system: COLO 205 colon
[21] = system: OVCAR-5 ovarian
[22] = system: MDA-MB-435 melanoma
[23] = system: HT29 colon
[24] = system: HS 578T breast
[25] = system: 786-0 renal
[26] = system: UO-31 renal
[27] = system: MCF7 breast
[28] = system: HOP-62 NSCLC
[29] = system: PC-3 prostate
[30] = system: MALME-3M melanoma
[31] = system: UACC-62 melanoma
[32] = system: NCI-H522 lung
[33] = system: SNB-75 CNS
[34] = system: UACC-257 melanoma
[35] = system: OVCAR-8 ovarian
[36] = system: SW-620 colon
[37] = system: HCT-116 colon
[38] = system: CAKI-1 renal
[39] = system: T-47D breast
[40] = system: EKVX NSCLC
[41] = system: OVCAR-4 ovarian
[42] = system: KM12 colon
[43] = system: LOX IMVI melanoma
[44] = system: M14 melanoma
[45] = system: SK-OV-3 ovarian
[46] = system: OVCAR-3 ovarian
[47] = system: SR leukemia
[48] = system: HL-60(TB) leukemia
[49] = system: SF-539 CNS
[50] = system: U251 glioblastoma
[51] = system: SF-295 CNS
[52] = system: HCT-15 colon
[53] = system: TK-10 renal
[54] = system: SN12C renal
[55] = system: NCI-H460 NSCLC
[56] = system: SK-MEL-5 melanoma
[57] = system: K-562 leukemia
[58] = system: A549 NSCLC
[59] = system: A498 renal

SMILES: CCC1=C[C@@H]2CN(C1)Cc1c([nH]c3ccccc13)[C@@](C(=O)OC)(c1cc3c(cc1OC)N(C)[C@H]1[C@@](O)(C(=O)OC)[C@H](OC(C)=O)[C@]4(CC)C=CCN5CC[C@]31[C@@H]54)C2
- GI50 [1]: 53.5 nM
- TGI [1]: 104 nM
- GI50 [2]: 652 nM
- TGI [2]: > 32700 nM
- GI50 [3]: 1520 nM
- TGI [3]: 16100 nM
- GI50 [4]: 20.2 nM
- TGI [4]: 36.6 nM
- GI50 [5]: 180 nM
- TGI [5]: 4700 nM
- GI50 [6]: 314 nM
- TGI [6]: 14200 nM
- GI50 [7]: 2770 nM
- TGI [7]: 24500 nM
- GI50 [8]: 993 nM
- TGI [8]: 11900 nM
- GI50 [9]: 139 nM
- TGI [9]: 1740 nM
- GI50 [10]: 17.4 nM
- TGI [10]: 35.5 nM
- GI50 [11]: 251 nM
- TGI [11]: 881 nM
- GI50 [12]: 24800 nM
- TGI [12]: > 64300 nM
- GI50 [13]: 66.7 nM
- TGI [13]: 286 nM
- GI50 [14]: 645 nM
- TGI [14]: 17800 nM
- GI50 [15]: 33.6 nM
- TGI [15]: 83.4 nM
- GI50 [16]: 37 nM
- TGI [16]: 216 nM
- GI50 [17]: 64.3 nM
- TGI [17]: 710 nM
- GI50 [18]: 681 nM
- TGI [18]: 18600 nM
- GI50 [19]: 228 nM
- TGI [19]: 12900 nM
- GI50 [20]: 51.6 nM
- TGI [20]: 506 nM
- GI50 [21]: 638 nM
- TGI [21]: 19700 nM
- GI50 [22]: 15.5 nM
- TGI [22]: 47.2 nM
- GI50 [23]: 58.5 nM
- TGI [23]: 1100 nM
- GI50 [24]: 63.3 nM
- TGI [24]: 174 nM
- GI50 [25]: 367 nM
- TGI [25]: 6050 nM
- GI50 [26]: 4510 nM
- TGI [26]: 17900 nM
- GI50 [27]: 65.1 nM
- TGI [27]: 4760 nM
- GI50 [28]: 212 nM
- TGI [28]: 12600 nM
- GI50 [29]: 210 nM
- TGI [29]: 12600 nM
- GI50 [30]: 120 nM
- TGI [30]: 18700 nM
- GI50 [31]: 35.9 nM
- TGI [31]: 901 nM
- GI50 [32]: 20.9 nM
- TGI [32]: 46.2 nM
- GI50 [33]: 48.8 nM
- TGI [33]: 126 nM
- GI50 [34]: 1260 nM
- TGI [34]: 15400 nM
- GI50 [35]: 237 nM
- TGI [35]: 768 nM
- GI50 [36]: 155 nM
- TGI [36]: 15100 nM
- GI50 [37]: 73.9 nM
- TGI [37]: 3920 nM
- GI50 [38]: 651 nM
- TGI [38]: 8980 nM
- GI50 [39]: 10600 nM
- TGI [39]: 25500 nM
- GI50 [40]: 650 nM
- TGI [40]: 16200 nM
- GI50 [41]: 2670 nM
- TGI [41]: > 62600 nM
- GI50 [42]: 50.8 nM
- TGI [42]: 4300 nM
- GI50 [43]: 171 nM
- TGI [43]: 9700 nM
- GI50 [44]: 214 nM
- TGI [44]: 13400 nM
- GI50 [45]: 113 nM
- TGI [45]: 5850 nM
- GI50 [46]: 34.3 nM
- TGI [46]: 171 nM
- GI50 [47]: < 10 nM
- TGI [47]: 16.1 nM
- GI50 [48]: 20.1 nM
- TGI [48]: 37.8 nM
- GI50 [49]: 76.5 nM
- TGI [49]: 243 nM
- GI50 [50]: 75.4 nM
- TGI [50]: 1810 nM
- GI50 [51]: 95.1 nM
- TGI [51]: 239 nM
- GI50 [52]: 971 nM
- TGI [52]: 8150 nM
- GI50 [53]: 1110 nM
- TGI [53]: 18600 nM
- GI50 [54]: 210 nM
- TGI [54]: 20100 nM
- GI50 [55]: 69.4 nM
- TGI [55]: 220 nM
- GI50 [56]: 22 nM
- TGI [56]: 49.4 nM
- GI50 [57]: 42.1 nM
- TGI [57]: 174 nM
- GI50 [58]: 270 nM
- TGI [58]: 11800 nM
- GI50 [59]: 203 nM
- TGI [59]: 2390 nM
